Laboratory results reported in US20230256094A1, “CANCER RADIOSENSITIZATION BY IN SITU FORMATION OF GOLD NANOPARTICLES AND/OR GOLD NANOCLUSTERS” (BOARD OF REGENTS, THE UNIVERSITY OF TEXAS SYSTEM, priority 2020, published 2023).

Key:
PANC1 pancreatic cancer [1] = assay: TBARS assay of peroxidation product formation; type: cell-based, human; conditions: 24 hr post irradiation
Experimental: FIG. 25 reports on a mechanistic study of radiosensitization quantifying the ratio of peroxidation product formation resulting from X-ray damage through TBARS assay, resulting from 24 hour, 0.20 mM Au^3+ treatments (right) compared against non-treated (left) combined with either 0 Gy or 8 Gy x-ray irradiation. Treatments are in full cell media to PANC1 pancreatic cancer.
Further, we characterized the mechanisms of radiosensitization through (i) quantification of double stranded DNA breaks via y-H2AX Foci (FIG. 21), (ii) mitochondrial polarization via JC-1 assay (FIG. 22), (iii) NADP total (FIG. 23) and NADP:NADPH ratio (FIG. 24) via NADP(H) assay, and (iv) peroxidation production via TBARS assay (FIG. 25).

PANC1 cells = assay: Clonogenic survival assay of radiosensitization; type: cell-based, human; conditions: 0.20 mM, 24 hrs
Experimental: FIG. 20 presents evidence of radiosensitization resulting from 24 hour 0.20 mM Au^3+ treatments (lower plot) compared against non-treated (upper plot) determined via clonogenic survival assay and in full cell media to PANC1 pancreatic cancer.
2.5. Evaluate radiosensitization efficacy and radiosensitization mechanisms for in situ synthetized GNCs. Based on the studies described in Sections 2.3-2.4, we selected the following conditions for radiosensitization studies in cell culture: 24 hr media conditioning by cells, 10% FBS (v/v) within, and 0.20 mM Au^3+ for 24 hrs.
A standard clonogenic assay was used to evaluate radiosensitization efficacy of intracellular synthetized GNC in PANC1 cells (FIG. 20). […] Dose enhancement factor at 10% surviving fraction (DEF10%) was calculated at 1.317 indicative of a strong radiosensitization in Au^3+ treated cells.

thyroid cancer = assay: gamma H2AX foci after x-ray irradiation, thyroid cancer; type: cell-based; conditions: 24 hours after x-ray irradiation, 0 or 8 Gy, 0.20 mM
Excerpt: Treatments are in full cell media.

PANC1 pancreatic cancer [2] = assay: MTT assay of cell viability after x-ray irradiation; type: cell-based, human; conditions: 24 hours after irradiation, all radiation dosages greater than 0 Gy, 0.20 mM
Experimental: FIG. 26 presents evidence of radiosensitization, quantifying the cell viability resulting from X-ray damage through MTT assay measured 24 and 96 hours after x-ray irradiation, resulting from 24 hour, 0.20 mM Au^3+ treatments (right bar in each dosage pair) compared against non-treated (left bar in each dosage pair) combined with either 0 Gy or 8 Gy x-ray irradiation. Treatments are in full cell media to PANC1 pancreatic cancer.

NIH3T3 cells = assay: Confocal fluorescence imaging of intracellular GNC formation; type: cell-based, mouse; conditions: 1 mM in cell culture media, 24 hours; 561 nm excitation, 610 nm emission
Experimental: FIG. 3A presents fluorescence images of control NIH3T3 cells (left) and cells treated with Au^3+ (right). Both control and treated cells generated fluorescence with nuclear staining by Hoechst 33342. Fluorescent signal in the treated cells was associated with intracellular formation of gold nanoclusters (GNCs). Scale bars 20 μm.
Our initial evaluation of radiosensitization via intracellular GNP formation was performed with 3T3 mouse fibroblast cells. […] Radiosensitization with intracellular GNC formation (i.e., delivery of Au^3+) was compared with pre-fabricated albumin-coated GNCs (Albumin-GNC) prepared according to work by Xie^46 and control cells without treatment via MTS assay (FIG. 3B).

[3] = test system: 8505C thyroid cancer and Nthy-Ori-3-1 normal thyroid cells; assay: MTT assay of cell viability, thyroid cells; type: cell-based; conditions: 24 hour treatment, all concentrations

[Au+3].[Cl-].[Cl-].[Cl-].[Cl-].[H+] [Au^3+, chloroauric acid]
increase in peroxidation product formation (PANC1 pancreatic cancer [1]): ~2 x
Dose enhancement factor at 10% surviving fraction (DEF10%) (PANC1 cells): 1.317
average surviving fraction (PANC1 cells; 2 Gy): 47.3%
average surviving fraction (PANC1 cells; 4 Gy): 7.3%
average surviving fraction (PANC1 cells; 6 Gy): 2.2%
radiosensitization via induced double stranded DNA breaks (gamma H2AX foci) (thyroid cancer): evidence of radiosensitization via induced double stranded DNA breaks
cell viability vs untreated controls (MTT) (PANC1 pancreatic cancer [2]): significantly lower cell viability
intracellular formation of GNCs (confocal fluorescence) (NIH3T3 cells): uniform formation of GNCs
viability of cancer cells compared with normal cells (MTT) [3]: significantly lower viability of cancer cells than normal cells
